Assay results reported in US20230189807A1, “COMPOSITIONS HAVING PESTICIDAL UTILITY AND PROCESSES RELATED THERETO” (priority 2020, published 2023).
Read-outs that look alike come from different tables or passages of the source.

How the values were obtained:
Assay type in all cases: in vivo
[1] = test system: Green Peach Aphid (Myzus persicae, MYZUPE); assay: Bioassay 1: Green Peach Aphid, cabbage seedling foliar spray; details: 3 days after treatment
Method: The stock solutions were prepared with Formula One as well as for each of the active ingredients individually. Test solutions were prepared from the stock solutions. Test solutions were prepared containing Formula One, the individual active ingredients, and mixtures of Formula One with each of the active ingredients. The test solutions for Formula One and the individual active ingredients were prepared by adding 750 microliters (μL) of stock solution to a 25 mL glass vial, then adding 750 μL of 1:1 acetone:methanol solvent, followed by the addition of 13.5 mL water with 0.025% Tween® 20 to create a 0.0005% (weight/volume (w/v)) solution. The test solutions containing mixtures of Formula One and the individual active ingredients were prepared by adding 750 μL of the active ingredient stock solution to a 25 mL glass vial, followed by 750 μL of the Formula One stock solution, then by the addition of 13.5 mL water with 0.025% Tween® 20 to create a test solution containing 0.0005% (w/v) Formula One and 0.0005% (w/v) of the active ingredient. Each test solution was serially diluted to create desired doses of test solutions (0.0005% (w/v), 0.000125% (w/v), 0.00003125% (w/v), 0.0000078% (w/v), 0.00000195% (w/v), and 0.0000005% (w/v)).
The test solutions were tested against GPA using the following procedure: Cabbage seedlings, grown in 3 inch pots with 2-3 small (3-5 centimeter (cm)) true leaves, were used as test substrate. The seedlings were infested with 20-50 GPA (wingless adult and nymph stages) one day prior to chemical application. Four pots with individual seedlings were used for each treatment. A hand-held aspirator-type sprayer was used for spraying a solution to both sides of […] leaves until runoff. Reference plants (solvent check) were sprayed with the diluent only (0.025% Tween® 20 and 10% acetone:methanol (1:1) in water). Treated plants were held in a holding room for three days at approximately 25° C. and ambient relative humidity (RH about 20% to about 45%) prior to grading. Evaluation was conducted by counting the number of live aphids per plant under a microscope three days after treatment. Percent control was measured using Abbott's correction formula (W. S. Abbott, J. Econ. Entomol. 18 (1925), pp. 265-267) as follows:
(§1) Corrected % Control=(1−(Y/X))*100
where X=No. of live aphids on solvent check plants and Y=No. of live aphids on treated plants. In Table B1 the “Expected % Control” was calculated using the method described in Colby S. R., Weeds, 1967, 15, 20-22. Bioassay 2: Sweet Potato Whitefly (Bemisia tabaci, BEMITA) (“SPW”).

[2] = test system: Neotropical Brown Stink Bug (Euschistus heros, EUSCHE); assay: Bioassay 5: Neotropical Brown Stink Bug, soaked green bean segments; details: 72 h; for pest or weed control at 0.000625 %: AI alone 0.000625 % (w/v); for pest or weed control at 0.0025 % / pest or weed control at 0.000156 %: read-out: Average % Control AI
Method: Stock solutions were prepared with Formula One as well as for each of the active ingredients individually. Test solutions were prepared from the stock solutions. Test solutions were prepared containing Formula One, the individual active ingredients, and mixtures of Formula One with each of the active ingredients. The test solution for Formula One was prepared by adding 500 μL of the stock solution to a 25 mL glass vial, then adding 500 μL of acetone, followed by the addition of 9 mL water with 0.025% Tween® 20 to create a 0.04% (w/v) solution. The individual active ingredients were prepared by adding 500 μL of stock solution to a 25 mL glass vial, then adding 500 μL of acetone, followed by the addition of 9 mL water with 0.025% Tween® 20 to create a 0.005% (w/v) solution. The test solutions containing mixtures of Formula One and the individual active ingredients were prepared by adding 500 μL of the active ingredient stock solution to a 25 mL glass vial, followed by 500 μL of the Formula One stock solution, then by the addition of 9 mL water with 0.025% Tween® 20 to create a test solution containing 0.04% (w/v) Formula One and 0.005% (w/v) of the active ingredient. Each test solution was serially diluted to create desired doses of test solutions (0.01% (w/v), 0.0025% (w/v), 0.000625% (w/v), 0.000156% (w/v), and 0.000039% (w/v)). In test solutions containing mixtures of Formula One and the active ingredients, the active ingredients were diluted as described above, but the Concentration of Formula One was held constant (0.04% (w/v)).
The test solutions that were tested against BSB were similar to those described above for WTPB. Fresh green beans were cut into segments approximately 1.5 inches long. Four bean segments were added to each test solution and soaked for approximately 15 minutes. After soaking, a single bean fragment was removed and placed into a single well of a 32-well rearing tray (Frontier Agricultural Sciences™), on top of a round filter paper disc. A reference treatment (solvent check) was treated with the diluent only. Each treatment was replicated four times and the test treatments were held at approximately 26° C. and ambient relative humidity (RH) prior to grading. Bean segments were allowed to air dry for ˜30 minutes. Three BSB nymphs were added to and contained in each well with a clear perforated adhesive lid. The total number of living BSB nymphs was recorded 3 days after application. Scoring was based off the total number of living nymphs out of all four replicates. Percent control was measured using Abbott's correction formula (W. S. Abbott, J. Econ. Entomol. 18 (1925), pp. 265-267) as follows:
as §1
where X=No. of live nymphs on solvent check and Y=No. of live nymphs on treated bean segments. In Table B5 the “Expected % Control” was calculated using the method described in Colby S. R., Weeds, 1967, 15, 20-22. Bioassay 6: Beet Armyworm (Spodoptera exigua, LAPHEG) (BAW), and Diamondback Moth (Plutella xylostella, PLUTMA) (DBM).

[3] = test system: Western Flower Thrips (Frankliniella occidentalis, FRANOC); assay: Bioassay 3: Western Flower Thrips, cotton leaf disc dip; details: foliar, 72 h; for pest or weed control at 0.0003125 %: AI alone 0.0003125 % (w/v); for pest or weed control at 0.005 %: AI alone 0.005 % (w/v); for pest or weed control at 7.8e-05 %: read-out: Average % Control AI
Method: Stock solutions of Formula One and various active ingredients were prepared initially at a concentration of 8 mg/mL for Formula One and 1 mg/mL for the active ingredients, respectively, using acetone as a diluent. Stock solutions were prepared with Formula One as well as for each of the active ingredients individually. Test solutions were prepared from the stock solutions. Test solutions were prepared containing Formula One, the individual active ingredients, and mixtures of Formula One with each of the active ingredients. The test solution for Formula One was prepared by adding 500 μL of the stock solution to a 25 mL glass vial, then adding 500 μL of acetone, followed by the addition of 9 mL water with 0.025% Tween® 20 to create a 0.04% (w/v) solution. The test solutions of the individual active ingredients were prepared by adding 500 μL of stock solution to a 25 mL glass vial, then adding 500 μL of acetone, followed by the addition of 9 mL water with 0.025% Tween® 20 to create a 0.005% (w/v) solution. The test solutions containing mixtures of Formula One and the individual active ingredients were prepared by adding 500 μL of the active ingredient stock solution to a 25 mL glass vial, followed by 500 μL of the Formula One stock solution, then by the addition of 9 mL water with 0.025% Tween® 20 to create a test solution containing 0.04% (w/v) Formula One and 0.005% (w/v) of the active ingredient. Each test solution was serially diluted to create desired doses of test solutions (0.005% (w/v), 0.00125% (w/v), 0.0003125% (w/v), 0.000078% (w/v), and 0.0000195% (w/v)). In test solutions containing mixtures of Formula One and the active ingredients, the active ingredients were diluted as described above, but the Concentration of Formula One was held constant (0.04% (w/v)).
The test solutions were tested against WFT using the following procedure: Leaf discs (2.7 cm in diameter) were cut from the true leaves of cotton plants. Leaf discs were dipped into the test solutions and shaken to ensure complete coverage of the leaf disc and then placed in Millipore® PetriSlides containing a filter paper disc. Treated leaf discs were air dried for approximately 1 hour. Each leaf disc was infested with 5 WFT (9-10 day old nymphs) by placement on each leaf disc, and the PetriSlides were capped to prevent escape. Each treatment was replicated three times and the test treatments were held at approximately 26° C. and ambient relative humidity (RH) prior to grading. Reference discs (solvent check) were treated with the diluent only. Evaluation was conducted by counting the number of live WFT under magnification 3 days after treatment. Percent control was measured using Abbott's correction formula (W. S. Abbott, J. Econ. Entomol. 18 (1925), pp. 265-267) as follows:
as §1
where X=No. of live nymphs on solvent check leaf discs and Y=No. of live nymphs on treated leaf discs. In Table B3 the “Expected % Control” was calculated using the method described in Colby S. R., Weeds, 1967, 15, 20-22. Bioassay 4: Western Tarnished Plant Bug (Lygus hesperus, LYGUHE) (“WTPB”).

[4] = soaked bean segments, 3 days after application
[5] = cotton leaf disc dip, 3 days after treatment
[6] = AI alone 0.0025 % (w/v), soaked bean segments, 3 days after application
[7] = AI alone 0.000156 % (w/v), soaked bean segments, 3 days after application
[8] = AI alone 0.000078 % (w/v), cotton leaf disc dip, 3 days after treatment

COc1cccc(C(=O)NN(C(=O)c2cc(C)cc(C)c2)C(C)(C)C)c1C [Methoxyfenozide]
Average % Control A1 ([1]; AI alone 0.195x10^-5 % (w/v)): 5%

O=[N+]([O-])NC1=NCCN1Cc1ccc(Cl)nc1 [Imidacloprid]
pest or weed control at 0.000625 % [2, 4]: 17%
pest or weed control at 0.0003125 % [3, 5]: 0%

CCOCn1c(-c2ccc(Cl)cc2)c(C#N)c(Br)c1C(F)(F)F [Chlorfenapyr]
pest or weed control at 0.0025 % [2, 6]: 8%
pest or weed control at 0.005 % [3, 5]: 57%

CNC(=O)O/N=C(\SC)C(=O)N(C)C [Oxamyl]
pest or weed control at 0.0003125 % [3, 5]: 0%

Cc1c(COC(=O)[C@@H]2[C@H](/C=C(\Cl)C(F)(F)F)C2(C)C)cccc1-c1ccccc1 (racemic) [Bifenthrin]
Average % Control A1 ([1]; AI alone 0.78x10^-5 % (w/v)): 52%
pest or weed control at 0.000156 % [2, 7]: 30%

COP(=O)(NC(C)=O)SC (stereo not shown) [Acephate]
pest or weed control at 0.0025 % [2]: 0%
pest or weed control at 7.8e-05 % [3]: 5%

CON=CNC(=O)c1ccc(C2=NOC(c3cc(Cl)cc(Cl)c3)(C(F)(F)F)C2)cc1C (stereo not shown) [Fluxametamide]
Average % Control A1 ([1]; AI alone 12.5x10^-5 % (w/v)): 0%

C/C(=N\C#N)N(C)Cc1ccc(Cl)nc1 [Acetamiprid]
Average % Control A1 ([1]; AI alone 0.78x10^-5 % (w/v)): 24%
pest or weed control at 0.0003125 % [3, 5]: 13%

CC(c1ccc(C(F)(F)F)nc1)S(C)(=O)=NC#N (stereo not shown) [Sulfoxaflor]
pest or weed control at 0.0025 % [2, 6]: 58%

CNC(=O)c1cc(Cl)cc(C)c1NC(=O)c1cc(Br)nn1-c1ncccc1Cl [Chlorantraniliprole]
pest or weed control at 0.005 % [3, 5]: 7%

CC[S+]([O-])c1c(C#N)nn(-c2c(Cl)cc(C(F)(F)F)cc2Cl)c1N (stereo not shown) [Ethiprole]
Average % Control A1 ([1]; AI alone 3.125x10^-5 % (w/v)): 0%
pest or weed control at 3.91e-05 % ([2]; AI alone 0.0000391 % (w/v), soaked bean segments, 3 days after application): 0%
pest or weed control at 0.005 % [3, 5]: 0%

CC1(C)[C@H](C(=O)O[C@H](C#N)c2cccc(Oc3ccccc3)c2)[C@@H]1/C=C(\Cl)C(F)(F)F (racemic) [Lambda Cyhalothrin]
Average % Control A1 ([1]; AI alone 0.78x10^-5 % (w/v)): 40%
pest or weed control at 0.000625 % [2, 4]: 8%
pest or weed control at 0.0003125 % [3, 5]: 7%

CC(COc1ccc(Oc2ccccc2)cc1)Oc1ccccn1 (stereo not shown) [Pyriproxyfen]
pest or weed control at 0.00125 % ([3]; AI alone 0.00125 % (w/v), cotton leaf disc dip, 3 days after treatment): 17%

Emamectin Benzoate
Average % Control A1 ([1]; AI alone 3.125x10^-5 % (w/v)): 21%

CCOC(=O)OC1=C(c2cc(C)ccc2C)C(=O)N[C@]12CC[C@@H](OC)CC2 [Spirotetramat]
Average % Control A1 ([1]; AI alone 0.05x10^-5 % (w/v)): 15%
pest or weed control at 7.8e-05 % [3, 8]: 7%

CN/C(=N/CC1CCOC1)N[N+](=O)[O-] (stereo not shown) [Dinotefuran]
pest or weed control at 0.000156 % [2]: 17%

CN1COCN(Cc2cnc(Cl)s2)/C1=N\[N+](=O)[O-] [Thiamethoxam]
pest or weed control at 0.000156 % [2, 7]: 17%
pest or weed control at 7.8e-05 % [3, 8]: 7%
